Measurements reported in US20250170130A1, “MODULATORS OF MYC FAMILY PROTO-ONCOGENE PROTEIN” (Nalo Therapeutics, priority 2022, published 2025).

Assays:
[1] = molecular target: T1, MycN (Homo sapiens, UniProt P04198); experiment: Degradation of MycN protein in SK-N-BE(2) cells, JESS/Western blot of lysates; assay type: cell-based; settings: SKNBE2 cells, 24 h; for Dmax at 1 µM / Dmax at 3 µM / Dmax at 6 µM / Dmax at 0.5 µM: SKNBE2, 24 h; for Dmax at 1 µM: read-out: % Degradation of MycN (SKNBE2) 24 h, 1 μM; for Dmax at 3 µM: read-out: % Degradation of MycN (SKNBE2) 24 h, 3 μM; for Dmax at 6 µM: read-out: % Degradation of MycN (SKNBE2) 24 h, 6 μM; for Dmax at 0.5 µM: read-out: % Degradation of MycN (SKNBE2) 24 h, 0.5 μM
T1 construct: endogenous in cells; host or cells: SK-N-BE(2)
T1 sequence (P04198 1-464): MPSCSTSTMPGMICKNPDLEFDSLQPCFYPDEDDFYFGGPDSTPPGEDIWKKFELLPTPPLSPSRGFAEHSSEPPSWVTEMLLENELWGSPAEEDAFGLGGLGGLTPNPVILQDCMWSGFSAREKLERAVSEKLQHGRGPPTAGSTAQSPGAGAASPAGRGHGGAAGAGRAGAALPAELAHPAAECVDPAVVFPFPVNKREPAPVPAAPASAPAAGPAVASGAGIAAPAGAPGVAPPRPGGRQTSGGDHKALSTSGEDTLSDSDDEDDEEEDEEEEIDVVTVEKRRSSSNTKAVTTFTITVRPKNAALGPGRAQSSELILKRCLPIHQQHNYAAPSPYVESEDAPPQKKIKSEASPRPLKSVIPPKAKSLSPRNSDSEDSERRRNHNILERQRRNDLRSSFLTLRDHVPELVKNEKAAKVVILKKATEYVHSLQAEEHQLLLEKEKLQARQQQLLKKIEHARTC
Procedure: (§1) For L363 cells (suspension), 1E6 cells were plated into each well of a 6 well plate. For SK-N-BE(2) cells (adherent), 5E5 cells were plated into each well of a 6 well dish. Cells were cultured for 24 hrs then treated with exemplary compounds at 0.1, 0.5, 1.0, 3.0 and 6.0 mM final assay concentrations plus DMSO control. All compounds were diluted to 10 mM in DMSO. Cells were treated with the compound for 24 hrs, then for both cell types, media containing cells were removed from wells into a 15 ml centrifuge tube, and remaining adherent SK-N-BE(2) cells were also scraped from the wells into the appropriate tubes. Tubes were centrifuged, cells were washed with PBS then re-centrifuged to pellet cells. A RIPA buffer cocktail was added to the cells on ice for 5 mins. Cell lysates were clarified by centrifugation and stored at −80 degrees until required. BCA assay was performed on each lysate to determine the protein concentration.
(§2) Once an appropriate lysate concentration and antibody concentration was determined, samples were screened in the JESS technology (Protein Simple, San Jose, CA—https://www.proteinsimple.com/jess.html).
(§3) Target protein antibodies (n-myc and c-myc) were detected in the chemi-luminescence channel and loading controls (tubulin and GAPDH) were detected using a Near Infra Red (NIR) labeled secondary antibody.
For SK-N-EB2 adherent cells, 5E5 cells in 1.9 mls media were plated into 6 well dishes and incubated for 24 hrs. Exemplary compounds were added (100 ul, 1 in 20 dilution in media) to each well (final assay concentration 6, 3, 1 and […]) together with DMSO control wells and incubated for 24 hrs. Cells were scrapped off the plate, centrifuged, washed with PBS, centrifuged, then a RIPA buffer cocktail added to the cells (100 ul), centrifuged and stored at −80 for later analysis. For L363 suspension cells, 1E6 cells were plated into 24 well dishes (950 ul media) and incubated for 24 hrs. Exemplary compounds were added (50 ul, 1 in 20 dilution in media) to each well (final assay concentration 6, 3, 1 and […]) together with DMSO control wells and incubated for 24 hrs. Cells were aspirated into tubes, centrifuged, washed with PBS, centrifuged, then a RIPA buffer cocktail added to the cells (100 ul), centrifuged and stored at −80 for later analysis.
(§4) For Western blot, a BCA (total protein) assay was run on all samples, these were then run in batches of 5 compounds plus control (DMSO) on each Western blot run—n-myc and c-myc were run in separate experiments in the chemiluminescence channel. Both tubulin and GAPDH were run as loading controls in all lanes in the near infra red channel.

[2] = molecular target: T2, MycC (Homo sapiens, UniProt P01106); experiment: Degradation of MycC protein in L363 cells, JESS/Western blot of lysates; assay type: cell-based; settings: L-363 cells, 24 h; for Dmax at 1 µM / Dmax at 0.5 µM / Dmax at 3 µM / Dmax at 6 µM: L-363, 24 h; for Dmax at 1 µM: read-out: % Degradation of MycC (L-363) 24 h, 1 μM; for Dmax at 0.5 µM: read-out: % Degradation of MycC (L-363) 24 h, 0.5 μM; for Dmax at 3 µM: read-out: % Degradation of MycC (L-363) 24 h, 3 μM; for Dmax at 6 µM: read-out: % Degradation of MycC (L-363) 24 h, 6 μM
T2 construct: endogenous in cells; host or cells: L363
Procedure: as §1, with “Cells were cultured for 24 hrs then treated with exemplary compounds at 0.1, 0.5, 1.0, 3.0 and 6.0 mM final assay concentrations plus DMSO control.” left out
as §2, §3
For SK-N-EB2 adherent cells, 5E5 cells in 1.9 mls media were plated into 6 well dishes and incubated for 24 hrs. […] Cells were scrapped off the plate, centrifuged, washed with PBS, centrifuged, then a RIPA buffer cocktail added to the cells (100 ul), centrifuged and stored at −80 for later analysis. For L363 suspension cells, 1E6 cells were plated into […] (950 ul media) and incubated for 24 hrs. […] Cells were aspirated into tubes, centrifuged, washed with PBS, centrifuged, then a RIPA buffer cocktail added to the cells (100 ul), centrifuged and stored at −80 for later analysis.
as §4

T2 sequence (P01106 whole entry): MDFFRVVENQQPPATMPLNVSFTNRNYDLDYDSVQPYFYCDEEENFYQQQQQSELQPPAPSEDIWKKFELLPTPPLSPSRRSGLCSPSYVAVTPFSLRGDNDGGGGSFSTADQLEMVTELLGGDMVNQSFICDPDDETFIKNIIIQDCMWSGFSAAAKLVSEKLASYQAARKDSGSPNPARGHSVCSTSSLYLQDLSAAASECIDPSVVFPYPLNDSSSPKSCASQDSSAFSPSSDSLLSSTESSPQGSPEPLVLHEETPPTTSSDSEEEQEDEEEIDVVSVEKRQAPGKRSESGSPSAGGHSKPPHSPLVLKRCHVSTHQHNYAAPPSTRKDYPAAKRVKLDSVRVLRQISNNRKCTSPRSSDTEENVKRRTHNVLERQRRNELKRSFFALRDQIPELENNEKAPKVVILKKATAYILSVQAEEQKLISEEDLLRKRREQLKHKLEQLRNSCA

Dmax at 1 µM [1] [%] | Dmax at 3 µM [1] [%] | Dmax at 6 µM [1] [%] | Dmax at 0.5 µM [1] [%] | % Degradation of MycN (SKNBE2) 24 h, 6 μM [1] | % Degradation of MycC (L-363) 24 h, 0.5 μM ([2]; 0.5 μM) | % Degradation of MycC (L-363) 24 h, 6 μM ([2]; 6 μM) | Structure (SMILES) | Dmax at 1 µM [2] [%] | Dmax at 0.5 µM ([2]; 0.5 μM) [%] | Dmax at 3 µM [2] [%] | Dmax at 6 µM ([2]; 6 μM) [%]
< 20 | 20 to 49 | 20 to 49 | – | – | – | – | c1cc(Nc2cc(C3CC3)[nH]n2)nc(N2CCC(C3CNC3)C2)n1 (racemic) [Compound 39, (±)-2-[3-(azetidin-3-yl)pyrrolidin-1-yl]-N-(5-cyclopropyl-1H-pyrazol-3-yl)pyrimidin-4-amine] | 20 to 49 | – | – | –
– | – | 80 to 100 | – | **** (degradation 80-100%) | ** (degradation 20-49%) | **** (degradation 80-100%) | CC(N)C1CCCN(c2nccc(Nc3cc(C4CC4)[nH]n3)n2)C1 (single isomer, unassigned) [Compound 159, 2-[3-(1-Aminoethyl)-1-piperidyl]-N-(5-cyclopropyl-1H-pyrazol-3-yl)pyrimidin-4-amine] | – | 20 to 49 | – | 80 to 100
20 to 49 | – | 80 to 100 | 20 to 49 | **** (degradation 80-100%) | – | – | CNC(C)C1CCCN(c2nccc(Nc3cc(C4CC4)[nH]n3)n2)C1 (single isomer, unassigned) [Compound 162, N-(5-Cyclopropyl-1H-pyrazol-3-yl)-2-[3-[1-(methylamino)ethyl]-1-piperidyl]pyrimidin-4-amine] | 20 to 49 | 20 to 49 | 20 to 49 | –
20 to 49 | 50 to 79 | 50 to 79 | 20 to 49 | – | – | – | CN(C)C[C@H]1CCN(c2nccc(Nc3cc(C4CC4)[nH]n3)n2)C1 (stereo in doubt) [Compound 32, N-(5-cyclopropyl-1H-pyrazol-3-yl)-2-[rac-(3R)-3-[(dimethylamino)methyl]pyrrolidin-1-yl]pyrimidin-4-amine] | < 20 | – | – | < 20
20 to 49 | 50 to 79 | 50 to 79 | 20 to 49 | – | – | – | CN(C)C[C@@H]1CCN(c2nccc(Nc3cc(C4CC4)[nH]n3)n2)C1 (stereo in doubt) [Compound 33, N-(5-Cyclopropyl-1H-pyrazol-3-yl)-2-[rac-(3S)-3-[(dimethylamino)methyl]pyrrolidin-1-yl]pyrimidin-4-amine] | – | – | – | –
– | < 20 | 50 to 79 | – | – | – | – | CNC1CC2(C1)CN(c1nccc(Nc3cc(C4CC4)[nH]n3)n1)C2 [Compound 1, 2-(4-((5-cyclopropyl-1H-pyrazol-3-yl)amino)pyrimidin-2-yl)-N-methyl-2-azaspiro[3.3]heptan-6-amine] | – | – | – | 20 to 49
– | – | < 20 | – | – | – | – | CNCCCNc1nccc(Nc2cc(C3CC3)[nH]n2)n1 [Compound 34, N^4-(5-cyclopropyl-1H-pyrazol-3-yl)-N^2-[3-(methylamino)propyl]pyrimidine-2,4-diamine] | – | – | – | –
– | – | < 20 | – | – | – | – | CN1CC(C2CN(c3nccc(Nc4cc(C5CC5)[nH]n4)n3)C2)C1 [Compound 46, N-(5-Cyclopropyl-1H-pyrazol-3-yl)-2-[3-(1-methylazetidin-3-yl)azetidin-1-yl]pyrimidin-4-amine] | – | – | – | –
< 20 | – | 20 to 49 | – | – | – | – | OC1CN(CC23CC(C2)N(c2nccc(Nc4cc(C5CCCC5)[nH]n4)n2)C3)C1 [Compound 70] | – | – | – | –
20 to 49 | 50 to 79 | 80 to 100 | 20 to 49 | – | – | – | CS(=O)(=O)CCCNCC12CC(C1)N(c1nccc(Nc3cc(C4CCCC4)[nH]n3)n1)C2 [Compound 74, N-(5-Cyclopentyl-1H-pyrazol-3-yl)-2-[4-[(3-methylsulfonylpropylamino)methyl]-2-azabicyclo[2.1.1]hexan-2-yl]pyrimidin-4-amine] | – | – | – | –
20 to 49 | 50 to 79 | 50 to 79 | 20 to 49 | – | – | – | CNC[C@H]1CN(c2nccc(Nc3cc(C4CCCC4)[nH]n3)n2)CCO1 [Compound 190, N-(5-Cyclopentyl-1H-pyrazol-3-yl)-2-[(2S)-2-(methylaminomethyl)morpholin-4-yl]pyrimidin-4-amine] | – | – | – | –

Structure (SMILES) | Dmax at 1 µM [1] [%] | Dmax at 3 µM [1] [%] | Dmax at 6 µM [1] [%] | Dmax at 0.5 µM [1] [%] | % Degradation of MycN (SKNBE2) 24 h, 6 μM [1] | % Degradation of MycC (L-363) 24 h, 0.5 μM ([2]; 0.5 μM) | % Degradation of MycC (L-363) 24 h, 6 μM ([2]; 6 μM) | Dmax at 1 µM [2] [%] | Dmax at 0.5 µM ([2]; 0.5 μM) [%] | Dmax at 3 µM [2] [%] | Dmax at 6 µM ([2]; 6 μM) [%]
c1cc(Nc2cc(C3CC3)[nH]n2)nc(N2C[C@H]3CNC[C@@H]3C2)n1 (racemic) [Compound 50, N-(5-Cyclopropyl-1H-pyrazol-3-yl)-2-[rac-(3aR,6aR)-2,3,3a,4,6,6a-hexahydro-1H-pyrrolo[3,4-c]pyrrol-5-yl]pyrimidin-4-amine] | 20 to 49 | 50 to 79 | 80 to 100 | 20 to 49 | – | – | – | < 20 | 20 to 49 | 20 to 49 | 50 to 79
c1cc(Nc2cc(C3CC3)[nH]n2)nc(N2CCC3(CNC3)C2)n1 [Compound 2, N-(5-cyclopropyl-1H-pyrazol-3-yl)-2-(2,6-diazaspiro[3.4]octan-6-yl)pyrimidin-4-amine] | < 20 | < 20 | 50 to 79 | < 20 | – | – | – | 20 to 49 | 20 to 49 | 20 to 49 | 20 to 49
CN1CC2(CCN(c3nccc(Nc4cc(C5CC5)[nH]n4)n3)C2)C1 [Compound 3, N-(5-cyclopropyl-1H-pyrazol-3-yl)-2-(2-methyl-2,6-diazaspiro[3.4]octan-6-yl)pyrimidin-4-amine] | < 20 | < 20 | 50 to 79 | < 20 | – | – | – | 20 to 49 | < 20 | – | 80 to 100
CN1C[C@@H]2CN(c3nccc(Nc4cc(C5CC5)[nH]n4)n3)C[C@@H]21 [Compound 52, N-(5-cyclopropyl-1H-pyrazol-3-yl)-2-[(1R,5R)-6-methyl-3,6-diazabicyclo[3.2.0]heptan-3-yl]pyrimidin-4-amine] | – | – | < 20 | – | – | – | – | – | – | – | –
